Test results reported in the NIST ThermoML archive (doi:10.1021/acs.jced.8b00110).

Experiment: xn = mol fraction of the nth substance listed
Conditions: Liquid, phase equilibration, x1 = 0.05

FC(F)(F)/C=C/Cl [(E)-1-chloro-3,3,3-trifluoroprop-1-ene] + CCCCCC[n+]1ccn(C)c1.O=S(=O)([N-]S(=O)(=O)C(F)(F)F)C(F)(F)F
binary diffusion coefficient (303.2 K): 2.9e-10 m2/s | binary diffusion coefficient (313.1 K): 3.8e-10 m2/s | binary diffusion coefficient (323.2 K): 4.1e-10 m2/s | binary diffusion coefficient (333.2 K): 5.7e-10 m2/s | binary diffusion coefficient (343.2 K): 8.3e-10 m2/s

FC(F)(F)/C=C/Cl [(E)-1-chloro-3,3,3-trifluoroprop-1-ene] + CCCCCCn1cc[n+](C)c1.F[B-](F)(F)F
binary diffusion coefficient (303.2 K): 3.3e-10 m2/s | binary diffusion coefficient (313.1 K): 4.6e-10 m2/s | binary diffusion coefficient (323.2 K): 6.1e-10 m2/s | binary diffusion coefficient (333.2 K): 9.6e-10 m2/s | binary diffusion coefficient (343.2 K): 1.68e-09 m2/s

FC(F)(F)/C=C/Cl [(E)-1-chloro-3,3,3-trifluoroprop-1-ene] + CCCCCCn1cc[n+](C)c1.O=S(=O)([O-])C(F)(F)F
binary diffusion coefficient (303.2 K): 5.2e-10 m2/s | binary diffusion coefficient (313.1 K): 7.8e-10 m2/s | binary diffusion coefficient (323.2 K): 1.04e-09 m2/s | binary diffusion coefficient (333.2 K): 1.69e-09 m2/s | binary diffusion coefficient (343.2 K): 2.62e-09 m2/s
